As a reminder, the MIC is the lowest concentration found to suppress growth. The low end stands for greater potency, the high end for weaker potency.

We go through one substance from patent US9919027B2, “Lipid nanoparticle of polymyxin” (priority 2013, dated 2018).

Assay [1] concerns 31 P. aeruginosa strains obtained from 31 patients with cystic fibrosis. Description: In vitro minimum inhibitory concentration (MIC) in MHBCA broth. The format is cell-based. Particulars: 24 hours at 37° C. As to the method:
The antibacterial action of an antibiotic can be measured by means of the minimum inhibitory concentration, which consists of the concentration of the antibiotic required to prevent bacterial growth after the incubation of 10^4-5 bacteria in rapid growth phase, in an aerobic, protein-free medium with pH 7.2 for an incubation period of one night. This term is used to determine the sensitivity of the bacteria to a specific antibiotic agent.
100 μl of a concentration of 10^4 Colony Forming Units (CFU)/ml of 31 P. aeruginosa strains obtained from 31 patients with cystic fibrosis, 13 strains of which were mucus producers, were incubated for 24 hours at 37° C. in a Mueller Hinton broth, cation-adjusted (MHBCA) medium, corresponding to between 20 mg and 25 mg per liter of calcium and between 10 mg and 12.5 mg per liter of magnesium, assuring the reproducibility of the results for P. aeruginosa, in the presence of colistimethate sodium, and nanoparticles obtained according to Examples 1b and 2b, at different concentrations (less than 0.25, 0.25, 0.5, 1, 2, 4, 8 and 32 μg/ml).

Assay [2] relates to mucosa producing P. aeruginosa strain. Description: In vivo efficacy in CD1 mice with pulmonary infection, lung bacteria count. The following applies: infected CD1 mice; intratracheal, once a day for three days; 3000 IU (0.24 mg colistimethate sodium equivalent). On the procedure:
To carry out the in vivo toxicity and efficacy assays of the nanoparticles of the present invention, it was necessary to establish a rodent infection model. An intratracheal administration of different concentrations of mucosa producing P. aeruginosa included in microspheres (Concentration 1: 5×10^4 CFU, Concentration 2: 2.4×10^7 CFU, and Concentration 3: 3.89×10^10), obtained from a patient with cystic fibrosis, suspended in PBS, in CD1 mice was carried out, administering a different concentration to each rodent, to establish the optimum concentration for generating a suitable pulmonary infection, capable of making the rodents sick without causing their immediate death.
Five mice were used as the control group and 64 mice infected with the inoculation of the bacteria of a mucosa producing P. aeruginosa strain, at a concentration of 2.4×10^7 CFU, as explained in Example 8, were used. […] The amounts were calculated by adjusting the dose recommended in humans with respect to the weight of the mice (3000 IU, equivalent to 0.24 mg of free colistimethate sodium, equivalent to 2.88 mg of the nanoparticles according to Example 1b and 2.52 mg of nanoparticles according to Example 2b). […]

For a further assay, the system named is H441 cell line. Description: Cell viability IC50 (CCK-8) as toxicity marker, H441. Type of assay: cell-based, human. Particulars: 24 h incubation, triplicate. As to the method: (§1) The median inhibition concentration value (IC50) refers to the concentration of an assayed sample required to inhibit the growth of the 50% of the cell population. In this case IC50 value was estimated as a toxicity marker, as the cell viability assay is run under human cell (A549 and H441 cell lines, which are immortalised lines derived from human adenocarcinomic epithelial cell). Cells (at a density of 12,000 cells per well in a 96-well plate) were grown in Dulbecco's Modified Eagle Medium (DMEM) supplemented with 10% foetal bovine serum (FBS), 1% L-glutamine, 1% penicillin/streptomycin solution and 1% of Minimum Essential Medium non-essential amino acids 100× (MEM-NEAA) at 37° C. and 5% CO2 for 24 hours. Decreasing concentrations of nanoparticles 1b and 2b and free colistimethate sodium, starting from 10 mg/ml to 0.07812 mg/ml were added to the cells, diluted in DMEM supplemented with 0.5% serum and incubated at 37°±2° C. and 5% CO2 for 24 h. Cell viability was assessed by means of the Cell Counting Kit 8 after a washing step. With this aim, 10% of CCK-8 reagent was added to each well and incubated in a wet chamber for 4 hours at 37°±2° C. and 5% CO2. Subsequently, the absorbance was read at 450 nm and at 650 nm as the reference wavelength. The absorbance was directly proportional to the number of living cells in culture. […]

In another assay the test system is A549 cell line. Description: Cell viability IC50 (CCK-8) as toxicity marker, A549. The format is cell-based, human. Particulars: 24 h incubation, triplicate. As to the method: as §1

As to colistimethate sodium, the MIC in assay [1] (obtained for 16% of the 31 strains) was 0.5 mg/L; in assay [1] (obtained for 25% of the 31 strains), 1 mg/L; in assay [1] (obtained for 48% of the 31 strains) it was 2 mg/L; in assay [1] (obtained for the remaining strains) it was 4 mg/L. In assay [2], the “Bacterial count (log CFU for every 2 lungs)” value is on record as 4.9 ± 0.2 log CFU for every 2 lungs. The figures for the “IC50 (median inhibition concentration, cell viability)” value in the assay on H441 cell line and in the assay with A549 cell line were 6.58 ± 0.72 mg/L and 101.27 ± 14.44 mg/L, respectively.
